# Test results reported in publication PMC5286421, “Interactions of retinoids with the ABC transporters P-glycoprotein and Breast Cancer Resistance Protein” (Scientific Reports, 2017).
# Like-named read-outs stand apart in the source and are kept apart here.
# Legend:
# [1] = system: NIH 3T3 / NIH 3T3 MDR1 and MDCK / MDCK ABCG2 cells; assay: DPH steady-state fluorescence anisotropy (membrane fluidity); conditions: retinoids 100 μM; for Effect on DPH fluorescence anisotropy: cyclosporin 10 μM, Ko143 2 μM, 10 min 37 °C, all tested cell lines; for Effect on DPH anisotropy in transporter expressing compared to non-expressing cells: Pgp+ vs Pgp− NIH 3T3, ABCG2 expressing vs non-expressing MDCK
# [2] = target: T1, ABCG2 (Homo sapiens, UniProt Q9UNQ0); assay: Mitoxantrone accumulation test (ABCG2 transport activity) in MDCK ABCG2 cells; conditions: 20 min pre-treatment 37 °C, 5 μM mitoxantrone 40 min
# T1 sequence (Q9UNQ0 1-655): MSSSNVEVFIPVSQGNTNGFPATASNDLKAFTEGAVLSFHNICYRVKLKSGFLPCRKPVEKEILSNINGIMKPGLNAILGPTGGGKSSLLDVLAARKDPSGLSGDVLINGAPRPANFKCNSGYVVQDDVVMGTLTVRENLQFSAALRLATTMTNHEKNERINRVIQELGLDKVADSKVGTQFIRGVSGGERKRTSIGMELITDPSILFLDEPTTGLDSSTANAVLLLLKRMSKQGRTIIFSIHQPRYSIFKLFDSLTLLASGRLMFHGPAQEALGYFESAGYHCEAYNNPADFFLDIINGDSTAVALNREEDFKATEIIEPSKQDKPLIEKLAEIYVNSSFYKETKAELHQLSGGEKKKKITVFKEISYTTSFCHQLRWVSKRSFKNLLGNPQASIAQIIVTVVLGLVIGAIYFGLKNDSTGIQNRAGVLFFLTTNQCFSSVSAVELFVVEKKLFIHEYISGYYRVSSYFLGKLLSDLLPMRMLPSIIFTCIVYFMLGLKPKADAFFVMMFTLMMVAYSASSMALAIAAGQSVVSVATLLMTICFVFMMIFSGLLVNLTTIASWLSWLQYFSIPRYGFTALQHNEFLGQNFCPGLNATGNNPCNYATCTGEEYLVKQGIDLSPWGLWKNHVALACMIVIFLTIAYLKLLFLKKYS
# Experimental: (§1) Calcein-AM was applied to measure the transport activity of Pgp[51], while ABCG2 mediated transport was measured in mitoxantrone accumulation tests[18]. Cells were harvested and washed three times in PBS containing 7 mM glucose (gl-PBS). […] Dead cells were excluded from the analysis on the basis of propidium iodide (PI) staining.
# (§2) Flow cytometric analysis was carried out on a Becton Dickinson FACSAria III Cell Sorter (Becton Dickinson, Mountain View, CA, USA). Calcein was excited by the 488 nm line of a solid state laser and the emitted light was detected using a 502 nm dichroic mirror and a 530/30 nm band-pass filter. […] AlexaFluor647 and mitoxantrone signals were detected with a 633 nm excitation laser and a 660/20 nm band-pass filter.
# [3] = target: T1, ABCG2; assay: Vanadate-sensitive ATPase activity of ABCG2 in Sf9 membrane preparations; assay type: biochemical; conditions: for IC50 values, ABCG2 stimulated (quercetin-stimulated) ATPase activity / IC50 values, ABCG2 basal ATPase activity / IC50: cholesterol-loaded Sf9 membranes, mean ± SEM, n=3; for Change of apparent KM of quercetin-stimulated ABCG2 ATPase activity / Change of vmax of quercetin-stimulated ABCG2 ATPase activity: Figs 5 and 6; for Type of inhibition of the quercetin-stimulated ATPase activity of ABCG2: modified Michaelis-Menten fit at different quercetin concentrations
# Experimental: For ATPase activity measurements we used membrane samples derived from Sf9 (Spodoptera frugiperda) insect ovarian cells expressing human Pgp or ABCG2. cDNAs of the transporters were cloned into recombinant baculovirus transfer vectors, the Sf9 insect ovarian cells were cultured, and infected with the baculoviruses as described in ref. [52]. Sf9 cells overexpressing human Pgp and ABCG2 were harvested and cell membranes were isolated. The protein concentration of the membrane samples were determined by the Lowry method. The ABCG2 expressing Sf9 membrane samples were loaded with cholesterol by cholesterol-methyl-beta-cyclodextrine complex in order to obtain high specific ATPase activity of the transporter. Membrane samples were stored at −80 °C. The transporter expression of the membrane samples (5 μg membrane protein/slot) was routinely checked by immunoblot using the G-1 mAb (for Pgp) or BXP-21 mAb (for ABCG2) and a goat anti-mouse HRP-conjugated IgG secondary antibody. Both primary and secondary antibodies were from Santa Cruz Biotechnology Inc. (CA, USA) and applied at 1:5,000 dilution.
# The vanadate-sensitive ATPase activity of Pgp and ABCG2 was determined by a colorimetric assay described in refs [32],[55]. Specific ATPase activity of the transporters was calculated from the amount of released inorganic phosphate. […]. The absorbance of the samples was measured at 700 nm using a BioTek Synergy HT plate reader (BioTek Instruments, Winooski, USA).
# The half-inhibitory doses (IC50) of retinoids were determined by fitting the dose-response relationships with a four parameter sigmoidal curve, where Amax and Amin are the ATPase activities measured at zero and at infinitely high inhibitor concentrations, respectively, n is the Hill coefficient and x is the concentration of the inhibitor:
# Upon studying the kinetics of inhibition of the substrate-stimulated ATPase activity by retinoids data points were fitted with a modified form of the Michaelis-Menten equation[56] which includes the Hill coefficient, n: […]
# v0 is the basal ATPase activity measured in the absence of the stimulatory substrate, while vmax is the maximal extent of ATPase stimulation and KM is the Michaelis constant (i.e. the substrate concentration at which the reaction rate is half of vmax).
# [4] = target: T2, Pgp (Homo sapiens, UniProt P08183); assay: Calcein accumulation test (Pgp transport activity) in NIH 3T3 MDR1 cells; conditions: 20 min pre-treatment 37 °C, 500 nM calcein-AM 20 min
# Experimental: as §1, §2
# [5] = target: T2, Pgp; conditions: for IC50 values, Pgp stimulated (verapamil-stimulated) ATPase activity: 40 μM verapamil; for IC50 values, Pgp stimulated (verapamil-stimulated) ATPase activity / IC50 values, Pgp basal ATPase activity: Sf9 membranes, mean ± SEM, n=3; for IC50 values, Pgp basal ATPase activity: 10 min pre-incubation 37 °C, 3 mM ATP/Mg2+ 25 min; for Change of apparent KM of verapamil-stimulated Pgp ATPase activity / Change of vmax of verapamil-stimulated Pgp ATPase activity: Figs 5 and 6; for Type of inhibition of the verapamil-stimulated ATPase activity of Pgp: modified Michaelis-Menten fit at different verapamil concentrations
# Experimental: (§3) For ATPase activity measurements we used membrane samples derived from Sf9 (Spodoptera frugiperda) insect ovarian cells expressing human Pgp or ABCG2. cDNAs of the transporters were cloned into recombinant baculovirus transfer vectors, the Sf9 insect ovarian cells were cultured, and infected with the baculoviruses as described in ref. [52]. Sf9 cells overexpressing human Pgp and ABCG2 were harvested and cell membranes were isolated. The protein concentration of the membrane samples were determined by the Lowry method[53]. The ABCG2 expressing Sf9 membrane samples were loaded with cholesterol by cholesterol-methyl-beta-cyclodextrine complex in order to obtain high specific ATPase activity of the transporter[54]. Membrane samples were stored at −80 °C. The transporter expression of the membrane samples (5 μg membrane protein/slot) was routinely checked by immunoblot using the G-1 mAb (for Pgp) or BXP-21 mAb (for ABCG2) and a goat anti-mouse HRP-conjugated IgG secondary antibody. Both primary and secondary antibodies were from Santa Cruz Biotechnology Inc. (CA, USA) and applied at 1:5,000 dilution.
# (§4) The vanadate-sensitive ATPase activity of Pgp and ABCG2 was determined by a colorimetric assay described in refs [32],[55]. Specific ATPase activity of the transporters was calculated from the amount of released inorganic phosphate. […] The absorbance of the samples was measured at 700 nm using a BioTek Synergy HT plate reader (BioTek Instruments, Winooski, USA).
# [6] = cited from earlier work; for Plasma concentrations resulting from chemotherapy use: treatment of neuroblastoma or squamous cell carcinoma, ref [24][25][26]
# [7] = target: T2, Pgp; assay: biochemical; conditions: IC50 values, Sf9 membranes, mean ± SEM, n=3
# Experimental: as §3, §4
# [8] = system: Pgp- and ABCG2-negative NIH 3T3 and MDCK cells; assay: Calcein and mitoxantrone accumulation in transporter negative cells; assay type: cell-based, mouse / canine; conditions: NIH 3T3 (calcein) and MDCK (mitoxantrone), Supplementary Fig. S1, 50 µM
# Experimental: Supplementary Fig. S1: Effect of retinoid derivatives on the calcein (a) and
# mitoxantrone (c) accumulation and viability (b, d) of Pgp- and ABCG2-negative NIH
# 3T3 and MDCK cells. Cells were pre-treated with retinoids added at 50 µM concentration
# Cell viability was determined on the basis of propidium iodide exclusion.
# (1 picture or pasted object on this page, not shown here)
# [9] = cited from earlier work
# [10] = Pgp basal ATPase activity, 10 min pre-incubation 37 °C, 3 mM ATP/Mg2+ 25 min
# [11] = Pgp stimulated (verapamil-stimulated) ATPase activity, 40 μM verapamil
# [12] = 10 μM quercetin, read-out: IC50 values, ABCG2 stimulated (quercetin-stimulated) ATPase activity
# [13] = read-out: IC50 values, ABCG2 basal ATPase activity
# T2 sequence (P08183 whole entry): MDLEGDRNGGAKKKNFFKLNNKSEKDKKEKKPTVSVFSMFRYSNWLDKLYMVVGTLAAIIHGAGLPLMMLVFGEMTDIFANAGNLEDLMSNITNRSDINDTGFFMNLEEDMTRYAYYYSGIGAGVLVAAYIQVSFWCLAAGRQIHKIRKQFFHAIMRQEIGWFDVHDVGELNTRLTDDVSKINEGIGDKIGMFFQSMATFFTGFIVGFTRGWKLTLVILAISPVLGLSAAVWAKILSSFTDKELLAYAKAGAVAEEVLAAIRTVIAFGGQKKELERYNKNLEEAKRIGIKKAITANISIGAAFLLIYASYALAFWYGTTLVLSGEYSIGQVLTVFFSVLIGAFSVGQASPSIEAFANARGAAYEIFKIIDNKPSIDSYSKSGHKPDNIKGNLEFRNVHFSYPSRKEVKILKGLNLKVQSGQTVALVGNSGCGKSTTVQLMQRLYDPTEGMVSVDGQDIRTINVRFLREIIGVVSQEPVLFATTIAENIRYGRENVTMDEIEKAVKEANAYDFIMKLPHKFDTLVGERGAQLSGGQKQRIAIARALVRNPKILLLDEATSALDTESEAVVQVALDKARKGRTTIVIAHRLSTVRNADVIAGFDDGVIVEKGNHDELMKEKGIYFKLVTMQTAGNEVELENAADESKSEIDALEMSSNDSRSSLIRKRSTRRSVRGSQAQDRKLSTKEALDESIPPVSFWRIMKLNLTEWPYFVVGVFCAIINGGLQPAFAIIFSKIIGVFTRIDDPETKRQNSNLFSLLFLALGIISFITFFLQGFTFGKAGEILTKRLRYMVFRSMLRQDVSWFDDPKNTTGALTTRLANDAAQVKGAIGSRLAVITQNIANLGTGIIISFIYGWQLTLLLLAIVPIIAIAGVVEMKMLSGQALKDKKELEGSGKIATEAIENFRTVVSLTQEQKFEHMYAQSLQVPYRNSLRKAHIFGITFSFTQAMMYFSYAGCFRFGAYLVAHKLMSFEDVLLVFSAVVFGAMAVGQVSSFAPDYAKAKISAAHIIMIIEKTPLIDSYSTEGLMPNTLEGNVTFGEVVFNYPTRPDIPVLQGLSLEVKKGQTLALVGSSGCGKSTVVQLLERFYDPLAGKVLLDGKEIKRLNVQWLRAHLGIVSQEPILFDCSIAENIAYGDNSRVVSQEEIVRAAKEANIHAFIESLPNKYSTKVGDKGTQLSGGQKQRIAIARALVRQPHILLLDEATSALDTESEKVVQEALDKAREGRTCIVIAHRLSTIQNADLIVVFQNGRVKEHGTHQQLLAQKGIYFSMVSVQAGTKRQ
compound,measurement,setting,value
CC1=C(/C=C/C(C)=C\C=C\C(C)=C\C(=O)O)C(C)(C)CCC1 [9-cis-retinoic acid],Effect on DPH fluorescence anisotropy,[1],did not have any effect
same,Effect on mitoxantrone accumulation of ABCG2 expressing cells (ABCG2 transport activity),[2],none of them had any effect
same,"IC50 values, ABCG2 stimulated (quercetin-stimulated) ATPase activity",[3]; 10 μM quercetin,No effect
same,"IC50 values, ABCG2 basal ATPase activity",[3],No effect
same,Effect on calcein accumulation of Pgp expressing cells (Pgp transport activity),[4],none of them had any effect
same,"IC50 values, Pgp stimulated (verapamil-stimulated) ATPase activity",[5],No effect
same,"IC50 values, Pgp basal ATPase activity",[5],No effect
CC1=C(/C=C/C(C)=C/C=C/C(C)=C\C(=O)O)C(C)(C)CCC1 [13-cis-retinoic acid],Effect on DPH fluorescence anisotropy,[1],increased the DPH fluorescence anisotropy values significantly
same,Effect on DPH anisotropy in transporter expressing compared to non-expressing cells,[1],similarly
same,Plasma concentrations resulting from chemotherapy use,[6],10 to 20 µM
same,IC50,[7]; [10],60.5 ± 11.4 µM
same,IC50,[7]; [11],26.8 ± 2 µM
same,Effect on mitoxantrone accumulation of ABCG2 expressing cells (ABCG2 transport activity),[2],increased the cellular accumulation of the fluorescent transporter substrates in a concentration dependent manner
same,IC50,[3]; [12],76.5 ± 2.3 µM
same,Change of apparent KM of quercetin-stimulated ABCG2 ATPase activity,[3],apparent increase of the KMvalues
same,Change of vmax of quercetin-stimulated ABCG2 ATPase activity,[3],decreased the vmax value
same,IC50,[3]; [13],70.6 ± 9 µM
same,Type of inhibition of the quercetin-stimulated ATPase activity of ABCG2,[3],mixed-type transporter inhibition
same,Effect on calcein accumulation of Pgp expressing cells (Pgp transport activity),[4],increased the cellular accumulation of the fluorescent transporter substrates in a concentration dependent manner
same,Effect on substrate accumulation of transporter negative cells,[8],did not have any effect
same,Change of apparent KM of verapamil-stimulated Pgp ATPase activity,[5],did not induce statistically significant KM increase
same,Change of vmax of verapamil-stimulated Pgp ATPase activity,[5],decreased the vmax
same,Type of inhibition of the verapamil-stimulated ATPase activity of Pgp,[5],inhibits Pgp only non-competitively
"CC1=C(/C=C/C(C)=C/C=C/C(C)=C/C(=O)O)C(C)(C)CCC1=O [All-trans-4-oxo-retinoic acid, all-trans-4-oxo-retinoic acid]","IC50 values, ABCG2 stimulated (quercetin-stimulated) ATPase activity",[3]; 10 μM quercetin,No effect
same,"IC50 values, ABCG2 basal ATPase activity",[3],No effect
same,"IC50 values, Pgp stimulated (verapamil-stimulated) ATPase activity",[5],Weak inhibition
same,"IC50 values, Pgp basal ATPase activity",[5],No effect
"CC1=C(/C=C/C(C)=C/C=C/C(C)=C/C(=O)O)C(C)(C)CCC1 [All-trans-retinoic-acid, all-trans retinoic acid]",Effect on DPH fluorescence anisotropy,[1],did not have any effect
same,Plasma concentrations resulting from chemotherapy use,[6],10 to 20 µM
same,Effect on mitoxantrone accumulation of ABCG2 expressing cells (ABCG2 transport activity),[2],none of them had any effect
same,"IC50 values, ABCG2 stimulated (quercetin-stimulated) ATPase activity",[3]; 10 μM quercetin,No effect
same,"IC50 values, ABCG2 basal ATPase activity",[3],No effect
same,Effect on calcein accumulation of Pgp expressing cells (Pgp transport activity),[4],none of them had any effect
same,"IC50 values, Pgp stimulated (verapamil-stimulated) ATPase activity",[5],No effect
same,"IC50 values, Pgp basal ATPase activity",[5],No effect
CC1=C(/C=C/C(C)=C/C=C/C(C)=C/CO)C(C)(C)CCC1 [Retinol],Effect on DPH fluorescence anisotropy,[1],increased the DPH fluorescence anisotropy values significantly
same,Effect on DPH anisotropy in transporter expressing compared to non-expressing cells,[1],similarly
same,"LogP (octanol-water partition coefficient, LogPow)",[9]; ref PubChem Compound Database (CID),5.7
same,Concentration present in the plasma (physiological),[6]; ref [20],1–2 micromolar
same,IC50,[7]; [10],23.5 ± 4 µM
same,IC50,[7]; [11],27.9 ± 0.7 µM
same,Effect on mitoxantrone accumulation of ABCG2 expressing cells (ABCG2 transport activity),[2],increased the cellular accumulation of the fluorescent transporter substrates in a concentration dependent manner
same,IC50,[3]; [12],95.2 ± 10.6 µM
same,Change of apparent KM of quercetin-stimulated ABCG2 ATPase activity,[3],increased the KM
same,Change of vmax of quercetin-stimulated ABCG2 ATPase activity,[3],decreased the vmax
same,IC50,[3]; [13],31.6 ± 4.2 µM
same,Type of inhibition of the quercetin-stimulated ATPase activity of ABCG2,[3],mixed-type transporter inhibition
same,Effect on calcein accumulation of Pgp expressing cells (Pgp transport activity),[4],increased the cellular accumulation of the fluorescent transporter substrates in a concentration dependent manner
same,Effect on substrate accumulation of transporter negative cells,[8],did not have any effect
same,Change of apparent KM of verapamil-stimulated Pgp ATPase activity,[5],increased the KM
same,Change of vmax of verapamil-stimulated Pgp ATPase activity,[5],decreased the vmax
same,Type of inhibition of the verapamil-stimulated ATPase activity of Pgp,[5],mixed-type transporter inhibition
CCC(=O)OC/C=C(C)/C=C/C=C(C)/C=C/C1=C(C)CCCC1(C)C [Retinyl-propionate],Effect on mitoxantrone accumulation of ABCG2 expressing cells (ABCG2 transport activity),[2],none of them had any effect
same,"IC50 values, ABCG2 stimulated (quercetin-stimulated) ATPase activity",[3]; 10 μM quercetin,No effect
same,"IC50 values, ABCG2 basal ATPase activity",[3],No effect
same,Effect on calcein accumulation of Pgp expressing cells (Pgp transport activity),[4],none of them had any effect
same,"IC50 values, Pgp stimulated (verapamil-stimulated) ATPase activity",[5],No effect
same,"IC50 values, Pgp basal ATPase activity",[5],No effect
O=c1c(O)c(-c2ccc(O)c(O)c2)oc2cc(O)cc(O)c12 [quercetin],"LogP (octanol-water partition coefficient, LogPow)","[9]; ref 2 (Rothwell et al., 2005)",1.8
same,Stimulated ATPase activity of ABCG2,[3]; 10 μM quercetin,60–70 nmol Pi/ mg protein/min
same,Stimulation of ABCG2 ATPase activity,"[3]; 10 μM quercetin, maximum stimulation",~2 fold
